Where a SMILES comes first, the peptide text is derived from it. Bridges are numbered along the chain shown (N, C = ends).
Assay: Determination of the protein binding (90% serum, 30 kDa filter, HPLC)
Type: in vitro ADME
Details: serum
Description: Protein binding assays were performed as follows. The purified peptides were mixed with 90% serum and centrifuged through a 30 kDa filter. The ultra-filtrate and the non filtrated serum samples were quantified by HPLC measurements and the protein binding was subsequently calculated.

For `CC(C)[C@@H]1NC(=O)CNC(=O)[C@H](CC(N)=O)NC(=O)[C@H](CCCNC(=N)N)NC(=O)[C@H](CCCNC(=N)N)NC(=O)[C@H](C(C)C)NC(=O)[C@@H]2CSSC[C@H](NC(=O)[C@H](C(C)C)NC(=O)[C@H](CCCNC(=N)N)NC1=O)C(=O)N[C@@H](Cc1ccc(O)cc1)C(=O)N[C@@H](CCCNC(=N)N)C(=O)N[C@@H](CCCNC(=N)N)C(=O)N[C@H](C(=O)N[C@@H](CC(N)=O)C(=O)O)CSSC[C@H](NC(=O)[C@H](Cc1ccccc1)NC(=O)CN)C(=O)N[C@@H](Cc1c[nH]c3ccccc13)C(=O)N[C@@H](Cc1ccc(O)cc1)C(=O)N[C@@H](C(C)C)C(=O)N2` [compound 28] (H-GFCWYVCVRRNGVRVCYRRCN-OH; disulfide 3-20, 7-16 (inferred); N-terminus and C-terminus assumed), which fraction unbound is on record?
Its fraction unbound is 0.08.

Which fraction unbound does the source give for `CC(C)[C@@H]1NC(=O)[C@H](CCCNC(=N)N)NC(=O)[C@H](C)NC(=O)CNC(=O)[C@H](CC(N)=O)NC(=O)[C@H](CCCNC(=N)N)NC(=O)[C@H](Cc2ccc(O)cc2)NC(=O)[C@H](C(C)C)NC(=O)[C@@H]2CSSC[C@H](NC1=O)C(=O)N[C@@H](Cc1ccc(O)cc1)C(=O)N[C@@H](CCCNC(=N)N)C(=O)N[C@@H](CCCNC(=N)N)C(=O)N[C@H](C(=O)N[C@@H](CC(N)=O)C(=O)O)CSSC[C@H](NC(=O)[C@H](Cc1ccccc1)NC(=O)CN)C(=O)N[C@@H](Cc1c[nH]c3ccccc13)C(=O)N[C@@H](Cc1ccc(O)cc1)C(=O)N[C@@H](C(C)C)C(=O)N2` [compound 29] (H-GFCWYVCVYRNGARVCYRRCN-OH; disulfide 3-20, 7-16 (inferred); N-terminus and C-terminus assumed) here?
The fraction unbound was 0.01.

With `CC(C)[C@@H]1NC(=O)[C@H](CCCNC(=N)N)NC(=O)CNC(=O)CNC(=O)[C@H](CC(N)=O)NC(=O)[C@H](CCCNC(=N)N)NC(=O)[C@H](Cc2ccc(O)cc2)NC(=O)[C@H](C(C)C)NC(=O)[C@@H]2CSSC[C@H](NC1=O)C(=O)N[C@@H](Cc1ccc(O)cc1)C(=O)N[C@@H](CCCNC(=N)N)C(=O)N[C@@H](CCCNC(=N)N)C(=O)N[C@H](C(=O)N[C@@H](CC(N)=O)C(=O)O)CSSC[C@H](NC(=O)[C@H](Cc1ccccc1)NC(=O)CN)C(=O)N[C@@H](Cc1c[nH]c3ccccc13)C(=O)N[C@@H](Cc1ccc(O)cc1)C(=O)N[C@@H](C(C)C)C(=O)N2` [compound 30] (H-GFCWYVCVYRNGGRVCYRRCN-OH; disulfide 3-20, 7-16 (inferred); N-terminus and C-terminus assumed) as the molecule, how does the fraction unbound read?
Its fraction unbound is 0.01.

With `CC(C)[C@@H]1NC(=O)[C@@H]2CSSC[C@H](NC(=O)[C@H](C(C)C)NC(=O)[C@H](CCCNC(=N)N)NC(=O)[C@@H]3CCCN3C(=O)CNC(=O)[C@H](CC(N)=O)NC(=O)[C@H](CCCNC(=N)N)NC(=O)[C@H](Cc3ccc(O)cc3)NC1=O)C(=O)N[C@@H](Cc1ccc(O)cc1)C(=O)N[C@@H](CCCNC(=N)N)C(=O)N[C@@H](CCCNC(=N)N)C(=O)N[C@H](C(=O)N[C@@H](CC(N)=O)C(=O)O)CSSC[C@H](NC(=O)[C@H](Cc1ccccc1)NC(=O)CN)C(=O)N[C@@H](Cc1c[nH]c3ccccc13)C(=O)N[C@@H](Cc1ccc(O)cc1)C(=O)N[C@@H](C(C)C)C(=O)N2` [compound 33] (H-GFCWYVCVYRNGPRVCYRRCN-OH; disulfide 3-20, 7-16 (inferred); N-terminus and C-terminus assumed) as the molecule, how does the fraction unbound read?
The fraction unbound was 0.01.

For `CC(C)[C@@H]1NC(=O)[C@H](CCCNC(=N)N)NC(=O)[C@H](CO)NC(=O)CNC(=O)[C@H](CC(N)=O)NC(=O)[C@H](CCCNC(=N)N)NC(=O)[C@H](Cc2ccc(O)cc2)NC(=O)[C@H](C(C)C)NC(=O)[C@@H]2CSSC[C@H](NC1=O)C(=O)N[C@@H](Cc1ccc(O)cc1)C(=O)N[C@@H](CCCNC(=N)N)C(=O)N[C@@H](CCCNC(=N)N)C(=O)N[C@H](C(=O)N[C@@H](CC(N)=O)C(=O)O)CSSC[C@H](NC(=O)[C@H](Cc1ccccc1)NC(=O)CN)C(=O)N[C@@H](Cc1c[nH]c3ccccc13)C(=O)N[C@@H](Cc1ccc(O)cc1)C(=O)N[C@@H](C(C)C)C(=O)N2` [compound 36] (H-GFCWYVCVYRNGSRVCYRRCN-OH; disulfide 3-20, 7-16 (inferred); N-terminus and C-terminus assumed), which fraction unbound is on record?
Its fraction unbound is 0.4.

With `CC(C)[C@@H]1NC(=O)CNC(=O)[C@H](CC(N)=O)NC(=O)[C@H](CCCNC(=N)N)NC(=O)[C@H](Cc2ccc(O)cc2)NC(=O)[C@H](C(C)C)NC(=O)[C@@H]2CSSC[C@H](NC(=O)CNC(=O)[C@H](CCCNC(=N)N)NC1=O)C(=O)N[C@@H](Cc1ccc(O)cc1)C(=O)N[C@@H](CCCNC(=N)N)C(=O)N[C@@H](CCCNC(=N)N)C(=O)N[C@H](C(=O)N[C@@H](CC(N)=O)C(=O)O)CSSC[C@H](NC(=O)[C@H](Cc1ccccc1)NC(=O)CN)C(=O)N[C@@H](Cc1c[nH]c3ccccc13)C(=O)N[C@@H](Cc1ccc(O)cc1)C(=O)N[C@@H](C(C)C)C(=O)N2` [compound 38] (H-GFCWYVCVYRNGVRGCYRRCN-OH; disulfide 3-20, 7-16 (inferred); N-terminus and C-terminus assumed) as the molecule, how does the fraction unbound read?
Its fraction unbound is 0.07.

With `CC(C)[C@@H]1NC(=O)CNC(=O)[C@H](CC(N)=O)NC(=O)[C@H](CCCNC(=N)N)NC(=O)[C@H](Cc2ccc(O)cc2)NC(=O)[C@H](C(C)C)NC(=O)[C@@H]2CSSC[C@H](NC(=O)[C@H](Cc3c[nH]cn3)NC(=O)[C@H](CCCNC(=N)N)NC1=O)C(=O)N[C@@H](Cc1ccc(O)cc1)C(=O)N[C@@H](CCCNC(=N)N)C(=O)N[C@@H](CCCNC(=N)N)C(=O)N[C@H](C(=O)N[C@@H](CC(N)=O)C(=O)O)CSSC[C@H](NC(=O)[C@H](Cc1ccccc1)NC(=O)CN)C(=O)N[C@@H](Cc1c[nH]c3ccccc13)C(=O)N[C@@H](Cc1ccc(O)cc1)C(=O)N[C@@H](C(C)C)C(=O)N2` [compound 39] (H-GFCWYVCVYRNGVRHCYRRCN-OH; disulfide 3-20, 7-16 (inferred); N-terminus and C-terminus assumed) as the molecule, how does the fraction unbound read?
Its fraction unbound is 0.02.

For `CC(C)[C@@H]1NC(=O)CNC(=O)[C@H](CC(N)=O)NC(=O)[C@H](CCCNC(=N)N)NC(=O)[C@H](Cc2ccc(O)cc2)NC(=O)[C@H](C(C)C)NC(=O)[C@@H]2CSSC[C@H](NC(=O)[C@H](CC(N)=O)NC(=O)[C@H](CCCNC(=N)N)NC1=O)C(=O)N[C@@H](Cc1ccc(O)cc1)C(=O)N[C@@H](CCCNC(=N)N)C(=O)N[C@@H](CCCNC(=N)N)C(=O)N[C@H](C(=O)N[C@@H](CC(N)=O)C(=O)O)CSSC[C@H](NC(=O)[C@H](Cc1ccccc1)NC(=O)CN)C(=O)N[C@@H](Cc1c[nH]c3ccccc13)C(=O)N[C@@H](Cc1ccc(O)cc1)C(=O)N[C@@H](C(C)C)C(=O)N2` [compound 41] (H-GFCWYVCVYRNGVRNCYRRCN-OH; disulfide 3-20, 7-16 (inferred); N-terminus and C-terminus assumed), which fraction unbound is on record?
The fraction unbound was 0.03.

For `CC(C)[C@@H]1NC(=O)CNC(=O)[C@H](CC(N)=O)NC(=O)[C@H](CCCNC(=N)N)NC(=O)[C@H](Cc2ccc(O)cc2)NC(=O)[C@H](C(C)C)NC(=O)[C@@H]2CSSC[C@H](NC(=O)[C@H](CCC(N)=O)NC(=O)[C@H](CCCNC(=N)N)NC1=O)C(=O)N[C@@H](Cc1ccc(O)cc1)C(=O)N[C@@H](CCCNC(=N)N)C(=O)N[C@@H](CCCNC(=N)N)C(=O)N[C@H](C(=O)N[C@@H](CC(N)=O)C(=O)O)CSSC[C@H](NC(=O)[C@H](Cc1ccccc1)NC(=O)CN)C(=O)N[C@@H](Cc1c[nH]c3ccccc13)C(=O)N[C@@H](Cc1ccc(O)cc1)C(=O)N[C@@H](C(C)C)C(=O)N2` [compound 42] (H-GFCWYVCVYRNGVRQCYRRCN-OH; disulfide 3-20, 7-16 (inferred); N-terminus and C-terminus assumed), which fraction unbound is on record?
The fraction unbound was 0.04.

For `CC(C)[C@@H]1NC(=O)CNC(=O)[C@H](CC(N)=O)NC(=O)[C@H](CCCNC(=N)N)NC(=O)[C@H](Cc2ccc(O)cc2)NC(=O)[C@H](C(C)C)NC(=O)[C@@H]2CSSC[C@H](NC(=O)[C@H](CO)NC(=O)[C@H](CCCNC(=N)N)NC1=O)C(=O)N[C@@H](Cc1ccc(O)cc1)C(=O)N[C@@H](CCCNC(=N)N)C(=O)N[C@@H](CCCNC(=N)N)C(=O)N[C@H](C(=O)N[C@@H](CC(N)=O)C(=O)O)CSSC[C@H](NC(=O)[C@H](Cc1ccccc1)NC(=O)CN)C(=O)N[C@@H](Cc1c[nH]c3ccccc13)C(=O)N[C@@H](Cc1ccc(O)cc1)C(=O)N[C@@H](C(C)C)C(=O)N2` [compound 44] (H-GFCWYVCVYRNGVRSCYRRCN-OH; disulfide 3-20, 7-16), which fraction unbound is on record?
Its fraction unbound is 0.15.

With `CC(C)[C@@H]1NC(=O)CNC(=O)[C@H](CC(N)=O)NC(=O)[C@H](CCCNC(=N)N)NC(=O)[C@H](Cc2ccc(O)cc2)NC(=O)[C@H](C(C)C)NC(=O)[C@@H]2CSSC[C@H](NC(=O)[C@H]([C@@H](C)O)NC(=O)[C@H](CCCNC(=N)N)NC1=O)C(=O)N[C@@H](Cc1ccc(O)cc1)C(=O)N[C@@H](CCCNC(=N)N)C(=O)N[C@@H](CCCNC(=N)N)C(=O)N[C@H](C(=O)N[C@@H](CC(N)=O)C(=O)O)CSSC[C@H](NC(=O)[C@H](Cc1ccccc1)NC(=O)CN)C(=O)N[C@@H](Cc1c[nH]c3ccccc13)C(=O)N[C@@H](Cc1ccc(O)cc1)C(=O)N[C@@H](C(C)C)C(=O)N2` [compound 45] (H-GFCWYVCVYRNGVRTCYRRCN-OH; disulfide 3-20, 7-16) as the molecule, how does the fraction unbound read?
The fraction unbound was 0.02.

With `CC(C)[C@@H]1NC(=O)CNC(=O)[C@H](CC(N)=O)NC(=O)[C@H](CCCNC(=N)N)NC(=O)[C@H](Cc2ccc(O)cc2)NC(=O)[C@H](C(C)C)NC(=O)[C@@H]2CSSC[C@H](NC(=O)[C@H](C(C)C)NC(=O)[C@H](CCCNC(=N)N)NC1=O)C(=O)N[C@@H](Cc1c[nH]cn1)C(=O)N[C@@H](CCCNC(=N)N)C(=O)N[C@@H](CCCNC(=N)N)C(=O)N[C@H](C(=O)N[C@@H](CC(N)=O)C(=O)O)CSSC[C@H](NC(=O)[C@H](Cc1ccccc1)NC(=O)CN)C(=O)N[C@@H](Cc1c[nH]c3ccccc13)C(=O)N[C@@H](Cc1ccc(O)cc1)C(=O)N[C@@H](C(C)C)C(=O)N2` [compound 46] (H-GFCWYVCVYRNGVRVCHRRCN-OH; disulfide 3-20, 7-16 (inferred); N-terminus and C-terminus assumed) as the molecule, how does the fraction unbound read?
The fraction unbound was 0.12.

— US20160158317A1, “Antimicrobial Peptide Variants and Polynucleotides Encoding Same” (Adenium Biotech A/S, priority 2010, published 2016)
